Data as given in patent US20130085283A1, “GERANYLGERANYLACETONE DERIVATIVES” (Coyote Pharmaceuticals, Inc., priority 2011, published 2013).

Assays:
HSP70 [1] = assay: HSP70 protein in rat brain lysates by Western blotting after oral dosing; format: in vivo
Protocol: The compounds tabulated below or vehicle controls were orally dosed at 12 mg/kg to Sprague-Dawley rats. Rat brain tissues were extracted in various time points after the oral dosing. Lysates were prepared from the harvested brain tissues. Western blotting analysis was done for the same protein amounts of these lysates, and western signals of HSP70 were detected by chemiluminescence and quantified in parallel with comparisons of those detected at time 0 hr. Western signals at time 0 hr were normalized as 100.

HSP70 [2] = assay: Expression of heat shock proteins in vivo, rat brain mRNA by qPCR; conditions: time 0 = 100%
Protocol: (§1) GGA trans isomer in 5% Gum Arabic as an aqueous suspension formulation were orally dosed to Sprague-Dawley rats at 12 mg/Kg body weight. Rat brain tissues were extracted in various time points after the oral dosing. mRNA were prepared from those brain tissues extracted, and cDNA were produced. qPCR analysis was done by using primers specifically designed to detect mRNA of HSPs. GAPDH gene was used as a control to compare quantities of HSP cDNAs amplified by qPCR analysis. Amounts of cDNA quantified at time 0 are normalized as 100%, and relative amounts of cDNA compared with those at various time points are depicted in the tables below: […]

HSP27 = assay: as above; conditions: time 0 = 100%
Protocol: as §1

HSP60 = assay: as above; conditions: time 0 = 100%
Protocol: as §1

HSP90 = assay: as above; conditions: time 0 = 100%
Protocol: as §1

GAPDH = assay: Expression of heat shock proteins in vivo, rat brain mRNA by qPCR (control gene); conditions: time 0 = 100%
Protocol: as §1

[3] = 12 hr after oral 12 mg/Kg in 5% Gum Arabic
[4] = 24 hr after oral 12 mg/Kg in 5% Gum Arabic
[5] = 48 hr after oral 12 mg/Kg in 5% Gum Arabic
[6] = 96 hr after oral 12 mg/Kg in 5% Gum Arabic

For CC(=O)CC/C=C(\C)CC/C=C(\C)CC/C=C(\C)CCC=C(C)C (single isomer, unassigned) [GGA trans isomer, 5E,9E,13E-Geranylgeranyl acetone], the “Western signal of HSP70 in brain” value (HSP70 [1]; 12 hr after oral 12 mg/kg, time 0 hr = 100, Vehicle 102%) was 115%, the “Western signal of HSP70 in brain” value (HSP70 [1]; 48 hr after oral 12 mg/kg, time 0 hr = 100, Vehicle 105%) was 115% and the “Western signal of HSP70 in brain” value (HSP70 [1]; 96 hr after oral 12 mg/kg, time 0 hr = 100, Vehicle 99%) was 114%. For the same compound, the “HSP70 relative amount of cDNA” value (HSP70 [2]; [3]) was 118.46%, the “HSP70 relative amount of cDNA” value (HSP70 [2]; [4]) was 107.69% and the “HSP70 relative amount of cDNA” value (HSP70 [2]; [5]) was 106.15%. For the same compound, the “HSP70 relative amount of cDNA” value (HSP70 [2]; [6]) was 103.85%, the “HSP27 relative amount of cDNA” value (HSP27; [3]) was 115.38% and the “HSP27 relative amount of cDNA” value (HSP27; [4]) was 114.61%. For the same compound, the “HSP27 relative amount of cDNA” value (HSP27; [5]) was 116.15%, the “HSP27 relative amount of cDNA” value (HSP27; [6]) was 103.84% and the “HSP60 relative amount of cDNA” value (HSP60; [3]) was 113.84%. The “HSP60 relative amount of cDNA” value (HSP60; [4]) was 130.00%, the “HSP60 relative amount of cDNA” value (HSP60; [5]) was 116.92% and the “HSP60 relative amount of cDNA” value (HSP60; [6]) was 103.85%. The “HSP90 relative amount of cDNA” value (HSP90; [3]) was 107.69%, the “HSP90 relative amount of cDNA” value (HSP90; [4]) was 106.92% and the “HSP90 relative amount of cDNA” value (HSP90; [5]) was 105.38%. For the same compound, the “HSP90 relative amount of cDNA” value (HSP90; [6]) was 100.77%, the “GAPDH relative amount of cDNA (control gene)” value (“GAPDH relative amount of cDNA” below) (GAPDH; [3]) was 96.93% and the “GAPDH relative amount of cDNA” value (GAPDH; [4]) was 99.24%. The “GAPDH relative amount of cDNA” value (GAPDH; [5]) was 100% and the “GAPDH relative amount of cDNA” value (GAPDH; [6]) was 102.31%.
